Experiment [1] has as its system MCF7. Description: Inhibition of MCF-7 cell proliferation. The experiment is classed as functional. Particulars: Homo sapiens.
Experiment [2] deals with MCF7. Description: cells. Conditions: Homo sapiens.
Description: Stimulation of MCF-7 cell proliferation
Experiment [3] concerns the target Estrogen receptor (Rattus norvegicus, UniProt P06211+Q62986).
The subject of experiment [4] is MCF7. Description: cells. Particulars: Homo sapiens. This is another data set of the same source.
Experiment [5] deals with MCF7. Description: Inhibition of MCF-7 cell proliferation; h=No inhibitory effect. Conditions: Homo sapiens. The experiment is classed as functional, cell-based.

Active and inactive are the calls of the source. No cut-off for these calls is given here.

One may read the IC30 as the point of the concentration-response curve where the effect stands at 30%. As usually defined, the EC50 is the midpoint of the concentration-response curve. As a reminder, the IC50 is the concentration at which inhibition is half-maximal. Read a low IC50 as inhibition by little substance.

The compound `CC/C(=C(\c1ccccc1)c1ccc(OCC(=O)O)cc1)c1ccccc1` showed an IC30 in experiment [1] of 0.02 µM. Besides, the EC50 in experiment [2] is 0.3 µM. In addition, the IC50 in experiment [3] was 4.5 µM; in experiment [4], 0.32 µM.
On to `O=C(O)COc1ccc(C(Cc2ccccc2)c2ccc(O)cc2)cc1` (centres undefined), for which, in experiment [2], the EC50 was determined as 0.016 µM. In experiment [5], the IC30 result was “inactive”. Moreover, the half-inhibitory concentration (IC50) turned out to be 0.9 µM in experiment [3] and 0.6 µM in experiment [4].
On to `CC/C(=C(\c1ccc(O)cc1)c1ccc(OCC(=O)O)cc1)c1ccccc1`, for which the IC30 in experiment [1] stood at 0.03 µM. The same compound gave an EC50 in experiment [2] of 0.0053 µM. For the same compound, the half-inhibitory concentration (IC50) came out at 0.009 µM in experiment [3] and 0.021 µM in experiment [4].
Compound `CC/C(=C(\c1ccc(O)cc1)c1ccc(CC(=O)O)cc1)c1ccccc1` had a concentration for an effect of 30% (IC30) in experiment [1] of 0.0025 µM. Further, the EC50 in experiment [2] came out at 0.042 µM. The IC50 in experiment [3] is 0.45 µM; in experiment [4] it was 0.058 µM.
For `CC/C(=C(\c1ccc(C)cc1)c1ccc(OCC(=O)O)cc1)c1ccccc1`, the 30% effect level in experiment [1] (IC30) was put at 0.013 µM. For the same compound, the EC50 in experiment [2] is 0.35 µM. The values for the half-maximal inhibitory concentration (IC50) in experiment [3] and in experiment [4] were 1.06 µM and 0.097 µM, respectively.
With `CCC(=C(c1ccc(O)cc1)c1ccc(O)cc1)c1ccc(OCC(=O)O)cc1`, the EC50 in experiment [2] came out at 0.046 µM. In addition, in experiment [5], the IC30 result is “inactive”. In addition, the results for the IC50 in experiment [3] and in experiment [4] were 0.75 µM and 2.39 µM, respectively.

(Values after ChEMBL document CHEMBL1129586, “Estrogenic triarylethylene acetic acids: effect of structural variation on estrogen receptor affinity and estrogenic potency and efficacy in MCF-7 cells” (J Med Chem, 1996).)
